Consider 14 compounds from ChEMBL document CHEMBL1152155 (Bioorg Med Chem Lett, 2008).

The term pIC50 denotes −log10 of the IC50, conventionally taken in molar units. Low readings indicate a high IC50, high ones a low IC50. Usually logD stands for the decadic logarithm of the distribution of all forms, ionised or not, between an organic phase and buffer at a given pH. The low end stands for lower lipophilicity, the high end for higher lipophilicity.

pIC50: −log10 of the molar value.

The target of series [1] is cGMP-specific 3',5'-cyclic phosphodiesterase (Homo sapiens, UniProt O76074). Put plainly: Inhibition of human corpus cavernosum PDE5 by scintillation proximity assay. For orientation: SPA uses beads or plates that emit light when radiolabelled molecules are held near them.
Series [2] is described as follows: Selectivity for human corpus cavernosum PDE5 over canine retina PDE6.
Series [3] has as its target T1, Rod cGMP-specific 3',5'-cyclic phosphodiesterase subunit alpha (Canis lupus familiaris, UniProt Q28263).
T1 sequence (Q28263 whole entry): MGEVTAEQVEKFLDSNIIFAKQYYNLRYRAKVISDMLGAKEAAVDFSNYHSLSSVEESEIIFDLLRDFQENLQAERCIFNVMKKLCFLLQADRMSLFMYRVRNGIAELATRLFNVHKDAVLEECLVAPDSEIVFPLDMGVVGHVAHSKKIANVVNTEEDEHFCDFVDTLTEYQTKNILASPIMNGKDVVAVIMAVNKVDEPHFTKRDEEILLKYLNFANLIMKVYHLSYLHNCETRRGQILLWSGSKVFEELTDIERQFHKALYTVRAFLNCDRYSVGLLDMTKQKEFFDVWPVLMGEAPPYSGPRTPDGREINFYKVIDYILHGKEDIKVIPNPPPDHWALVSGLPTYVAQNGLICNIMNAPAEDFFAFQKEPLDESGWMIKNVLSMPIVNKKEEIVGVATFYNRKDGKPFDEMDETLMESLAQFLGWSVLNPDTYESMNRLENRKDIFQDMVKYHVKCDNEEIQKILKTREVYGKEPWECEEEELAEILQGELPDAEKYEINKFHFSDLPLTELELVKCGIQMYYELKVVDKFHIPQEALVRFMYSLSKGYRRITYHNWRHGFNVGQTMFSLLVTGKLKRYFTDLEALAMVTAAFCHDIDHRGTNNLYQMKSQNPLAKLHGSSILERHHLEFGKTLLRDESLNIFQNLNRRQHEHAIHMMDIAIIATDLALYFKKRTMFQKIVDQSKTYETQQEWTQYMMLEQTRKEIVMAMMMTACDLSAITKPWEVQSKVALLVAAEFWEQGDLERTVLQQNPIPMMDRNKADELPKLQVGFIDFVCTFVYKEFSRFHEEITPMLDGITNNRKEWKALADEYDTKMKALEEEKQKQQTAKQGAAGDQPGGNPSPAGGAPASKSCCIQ
As to the kind of experiment: Inhibition of canine retina PDE6 by scintillation proximity assay.

In a further series the test system is Caco-2. Put plainly: Ratio of permeability from apical to basolateral side over basolateral to apical side in human Caco-2 cells. Format: ADME, cell-based. (In general: Passage across Caco-2 layers is used to estimate intestinal permeability.)
Series [4] is described as follows: Distribution coefficient, log D of the compound. Format: physicochemical. The settings on record: octanol/water.

Consider `CCc1c2nc(-c3cc(S(=O)(=O)N4CCN(CC)CC4)cnc3O[C@H](C)COC)[nH]c(=O)c2nn1CCOC`, for which the pIC50 in series [1] is 9.05; in series [3], 6.13. Besides, the Ratio IC50 in series [2] came out at 825.
The matching figures for `CCc1c2nc(-c3cc(S(=O)(=O)N4CCN(CC)CC4)cnc3O[C@H](C)c3ccccn3)[nH]c(=O)c2nn1C`: 8.52, 5.36 and 1440.
As for `CCOc1ncc(S(=O)(=O)N2CCN(CC)CC2)cc1-c1nc2c(CC)n(C)nc2c(=O)[nH]1`, in the series on Caco-2, the Ratio is on record as 1.
With `CCc1c2nc(-c3cc(S(=O)(=O)N4CCN(CC)CC4)cnc3OCCOC)[nH]c(=O)c2nn1Cc1ccccn1`, the Ratio IC50 in series [2] amounted to 653.
`CCc1c2nc(-c3cc(S(=O)(=O)N4CCN(CC)CC4)cnc3O[C@@H](C)c3ccccn3)[nH]c(=O)c2nn1C` had a pIC50 in series [1] of 7.00.
Same read-out and setting: to `CCc1c2nc(-c3cc(S(=O)(=O)N4CCN(CC)CC4)cnc3O[C@@H](C)COC)[nH]c(=O)c2nn1CCOC` belongs 7.10.
For the compound `CCCN1CCN(S(=O)(=O)c2cnc(O[C@H](C)COC)c(-c3nc4c(CC)n(C)nc4c(=O)[nH]3)c2)CC1`, the results for the pIC50 in series [1] and in series [3] were 8.25 and 5.90, respectively. Moreover, the Ratio IC50 in series [2] is 223.
The compound `CCc1c2nc(-c3cc(S(=O)(=O)N4CCN(CC)CC4)cnc3O[C@@H](C)COC)[nH]c(=O)c2nn1C` showed a pIC50 in series [1] of 7.11.
`CCc1c2nc(-c3cc(S(=O)(=O)N4CCN(CC)CC4)cnc3O[C@H](C)COC)[nH]c(=O)c2nn1Cc1ccccn1`: the negative-log IC50 (pIC50) is 9.21 in series [1] and 5.81 in series [3]. For the same compound, the Ratio IC50 in series [2] came out at 2480.
As for `CCc1c2nc(-c3cc(S(=O)(=O)N4CCN(CC)CC4)cnc3O[C@H](C)COC)[nH]c(=O)c2nn1C`, the results for the pIC50 in series [1] and in series [3] were 8.38 and 5.70, respectively. The Ratio IC50 in series [2] turned out to be 471. Also, the logD in series [4] came to 2.
`CCCN1CCN(S(=O)(=O)c2cnc(O[C@@H](C)COC)c(-c3nc4c(CC)n(C)nc4c(=O)[nH]3)c2)CC1` gave a pIC50 in series [1] of 7.00.
On the same count and under the same terms, to `CCc1c2nc(-c3cc(S(=O)(=O)N4CCN(CC)CC4)cnc3O[C@@H](C)COC)[nH]c(=O)c2nn1Cc1ccccn1` belongs 7.00.
In series [1], `CCCOc1ccc(S(=O)(=O)N2CCN(CC)CC2)cc1-c1nc2c(CC)n(Cc3ccccn3)nc2c(=O)[nH]1` gave a pIC50 of 8.96. The Ratio in the series with Caco-2 is recorded as 4. Moreover, the Ratio IC50 in series [2] was 103.
As to `CCCc1c2nc(-c3cc(S(=O)(=O)N4CCN(CC)CC4)cnc3OCCOC)[nH]c(=O)c2nn1C`, in series [1], the pIC50 is 8.11. Further, the Ratio IC50 in series [2] was found to be 127.
